Molecular target: T1, GluD2-A654T-R710W (Rattus norvegicus, UniProt Q63226, A654T/R710W)
T1 construct: expressed in transfected cells; host or cells: Xenopus laevis oocytes injected with cRNA
T1 sequence (Q63226 24-1007 A654T/R710W): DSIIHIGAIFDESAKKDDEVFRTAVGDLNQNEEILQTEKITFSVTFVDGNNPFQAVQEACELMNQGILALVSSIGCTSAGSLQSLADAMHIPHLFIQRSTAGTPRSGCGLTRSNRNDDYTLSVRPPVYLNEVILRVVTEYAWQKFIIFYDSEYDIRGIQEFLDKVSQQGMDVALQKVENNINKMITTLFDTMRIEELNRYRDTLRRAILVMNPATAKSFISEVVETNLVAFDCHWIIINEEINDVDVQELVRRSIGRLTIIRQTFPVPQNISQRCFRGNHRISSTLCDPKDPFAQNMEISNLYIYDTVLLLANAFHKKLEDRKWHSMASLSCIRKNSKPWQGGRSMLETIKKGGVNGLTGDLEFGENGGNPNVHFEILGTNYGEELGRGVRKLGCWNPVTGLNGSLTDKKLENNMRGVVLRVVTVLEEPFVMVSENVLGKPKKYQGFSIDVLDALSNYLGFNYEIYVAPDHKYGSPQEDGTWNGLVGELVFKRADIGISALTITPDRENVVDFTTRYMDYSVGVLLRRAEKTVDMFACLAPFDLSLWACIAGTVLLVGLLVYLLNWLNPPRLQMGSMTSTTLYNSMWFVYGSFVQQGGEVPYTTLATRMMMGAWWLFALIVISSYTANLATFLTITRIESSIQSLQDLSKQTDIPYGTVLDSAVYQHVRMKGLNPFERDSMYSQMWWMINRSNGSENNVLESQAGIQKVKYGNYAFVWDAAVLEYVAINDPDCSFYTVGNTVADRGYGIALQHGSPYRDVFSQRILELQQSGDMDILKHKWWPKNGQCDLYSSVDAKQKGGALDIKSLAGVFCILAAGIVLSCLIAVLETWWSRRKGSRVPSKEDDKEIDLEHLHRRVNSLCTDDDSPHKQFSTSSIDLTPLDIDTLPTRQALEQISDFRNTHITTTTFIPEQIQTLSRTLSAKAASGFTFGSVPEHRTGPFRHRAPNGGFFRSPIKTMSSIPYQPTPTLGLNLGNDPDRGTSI
Assay: TEVC of constitutive current, Xenopus oocytes expressing GluD2-A654T-R710W
Type: cell-based
Text: Human GluD1 (GRID1) and rat GluD2 (Grid2) cDNAs were introduced into the pGEM-HE and pCI-neo vectors. GRID1 (NM_017551.3) gene fragments were synthesized by Integrated DNA Technologies and cloned into empty vectors using InFusion cloning (Clontech). […] However, rat and human GluD2-encoding cDNA are identical in the M3 domain in which many of the variants we studied reside (see Supplementary Fig. S1). The full open reading frame for both constructs were verified by Sanger sequencing (Eurofins) and the full plasmid sequence was verified by whole plasmid sequencing (plasmidsaurus). Variant cDNA changes identified in patients were introduced into the cloned human GRID1 (NM_017551.3) in pGEM-HE and cloned rat Grid2 cDNA sequence (NM_024379.1) in pGEM-HE vector using Quikchange Lightning (Agilent) protocol according to the manufacturer’s instructions. Vectors were linearized and cRNA was synthesized using T7 RNA mMESSAGE kit (Invitrogen).
Xenopus laevis oocytes were prepared from ovaries purchased from Xenopus 1 (Dexter, MI) as previously described, [68] and incubated at 16°C in culture Barth’s solution (in mM) 88 NaCl, 2.4 NaHCO3, 1 KCl, 0.33 Ca(NO3)2, 0.41 CaCl2, 0.82 MgSO4, 10 HEPES, pH 7.4 with NaOH, supplemented with 1 U/ml penicillin and 1 μg/ml streptomycin. Oocytes were injected with approximately 5–40 ng RNA per oocyte and then incubated at 16–19°C for 1–3 days in culture Barth’s solution. […] Two-electrode voltage clamp (TEVC) recordings were performed as previously described. Unless otherwise specified, extracellular solution contained (in mM) 90 NaCl, 3 KCl, 0.5 BaCl2, 0.01 EDTA, 10 HEPES, and was brought to pH 7.4 with NaOH. The oocytes were placed in a dual track recording chamber and gravity perfused with solution exchange controlled via a computer-driven 8-valve positioner (Digital MVP Valve). […] Recording electrodes were filled with 0.3 M KCl, and currents were recorded with membrane voltage held at −40 mV. To establish constitutive activity of recombinant receptors when compared to wild type receptors, we used the oocyte recording solution described above, but with 90 mM N-methyl-D-glucamine (NMDG) chloride replacing 90 mM NaCl. […] For Ca^2+ concentration-response curves, choline chloride was used to maintain equimolar concentrations of Cl^− ions in the extracellular solution across the changing concentrations of calcium chloride. All compounds used in this study for concentration-response oocyte recordings were dissolved in deionized water as 50–100 mM stock solutions. In some rescue pharmacology experiments, we substituted 1 mM CaCl2 for 0.5 mM BaCl2 to evaluate Ca^2+-dependent control of receptor responses.

## [Ca+2] [Ca^2+]
Compared to GluD2-A654T controls
  Effect on constitutive current, in words: increased Ca^2+ potency
Normalized to NMDG+ − Na+ difference current
  Ca2+ % Max (NMDG+ − Na+) Mean ± SEM: 245 ± 15 (9) %
Potentiation of constitutive current, read-out: Ca2+ EC50 [95% CI]
  EC50: 80 µM
ratio
  Ca2+ EC50 A654T/EC50 variant: 1.88

## N[C@H](CO)C(=O)O [D-serine]
Percent of constitutive leak current (NMDG+/Na+ difference current)
  D-serine % Max (NMDG+ − Na+) Mean ± SEM: 42 ± 3.5 (14) %

From PMC10840383, “Clinical features, functional consequences, and rescue pharmacology of missense GRID1 and GRID2 human variants” (Human Molecular Genetics, 2023)
